Measurements: ChEMBL document CHEMBL1133954, “The discovery of novel, potent and selective PDE5 inhibitors” (Bioorg Med Chem Lett, 2001)

Columns and labels:
[1] = Relative inhibition of PDE1 from bovine heart and PDE5 from human platelets
[2] = Relative inhibition of PDE6 from bovine retina and PDE5 from human platelets
[3] = Relative inhibition of PDE4 from rat kidney and PDE5 from human platelets
[4] = Relative inhibition of PDE2 from rat kidney and PDE5 from human platelets
[5] = target: cGMP-specific 3',5'-cyclic phosphodiesterase (Homo sapiens, UniProt O76074); assay: Inhibition of PDE5 from human platelets

Row | SMILES | Ratio [1] | Ratio [2] | Ratio [3] | Ratio [4] | IC50 [5] [nM]
1 | CCCOc1ccc(S(=O)(=O)N2CC[C@@H](N(C)C)C2)cc1-c1nc(O)c2c(Cl)nc3nn(Cc4ccc(OC)cc4)cc3c2n1 | 130 | 17 | 310 | 1200 | 
2 | CCCOc1ccc(S(=O)(=O)N2CC[C@@H](N(C)C)C2)cc1-c1nc2c(c(Cl)nc3nn(Cc4ccc(OC)cc4)cc32)c(=O)[nH]1 |  |  |  |  | 13
3 | CCCOc1ccc(S(=O)(=O)N2CC[C@@H](N(C)C)C2)cc1-c1nc(O)c2c(NCc3ccc(F)cc3)nc3nn(Cc4ccc(OC)cc4)cc3c2n1 |  | 15 | 2500 | > 10000 | 
4 | CCCOc1ccc(S(=O)(=O)N2CC[C@@H](N(C)C)C2)cc1-c1nc2c(c(NCc3ccc(F)cc3)nc3n[nH]cc32)c(=O)[nH]1 |  |  |  |  | 0.31
5 | CCCOc1ccc(S(=O)(=O)N2CC[C@@H](N(C)C)C2)cc1-c1nc2c(c(NCc3ccc(F)cc3)nc3nn(Cc4ccc(OC)cc4)cc32)c(=O)[nH]1 |  |  |  |  | 1.7

More lines, now with the values ahead:

Row | Ratio [1] | Ratio [2] | Ratio [3] | Ratio [4] | IC50 [5] [nM] | SMILES
6 |  | 160 | > 100000 |  |  | CCCOc1ccc(S(=O)(=O)N2CC[C@@H](N(C)C)C2)cc1-c1nc(O)c2c(NCc3ccc(F)cc3)[nH]c3nncc-3c2n1
7 |  |  |  |  | 2.1 | CCCOc1ccc(S(=O)(=O)N2CC[C@@H](N(C)C)C2)cc1-c1nc2c(cnc3n[nH]cc32)c(=O)[nH]1
8 |  | 180 |  | > 10000 |  | CCCOc1ccc(S(=O)(=O)N2CC[C@@H](N(C)C)C2)cc1-c1nc(O)c2c(NCc3ccc(OC)c(Cl)c3)[nH]c3nncc-3c2n1
9 | 400 | 22 | 3200 | 2000 |  | CCCOc1ccc(S(=O)(=O)N2CC[C@@H](N(C)C)C2)cc1-c1nc(O)c2c[nH]c3nncc-3c2n1
